The subject of test [1] is psyllids Creiis lituratus. Kind of test: Field trial, subsurface application for the control of psyllids (lerp counts) on Eucalyptus dunni. Format: in vivo. Conditions: for Mean lerp count per 5 terminal leaflets: subsurface application. From the text: (§1) Near Casino, northern New South Wales, Australia in the 2006-2007 season, chlothianidin as a suspension (200 g/L) in water at 0.5, 1.0 and 1.5 grams of active ingredient per tree (gai/tree) was applied to 2 year old Eucalyptus dunni trees for the control of psyllids Creiis lituratus during winter and chrysomelid leaf beetles during summer.
(§2) A single application below the soil surface was made by coulter 20-40 cm from the base of the stem of the trees and to a depth of 10-15 cm in 128 L of water per hectare. Psyllid lerp counts were taken 141 and 303 DAT (days after treatment). Tree height was measured at treatment and then at 303 DAT. Diameter at breast height was measured at 303 DAT.

The subject of test [2] is 2 year old Eucalyptus dunni trees. In words: Field trial, effect of psyllid control on growth of E. dunni (tree height, diameter, wood volume). Type of test: in vivo. Conditions: for Mean increase in tree height: 0-303 DAT.
Description: as §1, §2
The difference in volume between the untreated and the 1 gai/tree treatment can be calculated over 303 days

`CN/C(=N\[N+](=O)[O-])NCc1cnc(Cl)s1` [Clothianidin, clothianidin]: the “Mean lerp count per 5 terminal leaflets” value came to 3.50 B in test [1] (0.5 gai/tree, Mar. 19, 2007 (303 DAT)); 2.33 b in test [1] (0.5 gai/tree, Oct. 7, 2006 (141 DAT)); 2.06 B in test [1] (1 gai/tree, Mar. 19, 2007 (303 DAT)); 0.71 c in test [1] (1 gai/tree, Oct. 7, 2006 (141 DAT)); 0.69 B in test [1] (1.5 gai/tree, Mar. 19, 2007 (303 DAT)); 0.58 c in test [1] (1.5 gai/tree, Oct. 7, 2006 (141 DAT)). For the same molecule, in test [1] (sub-surface application at 0.5 to 1.5 gai/tree, up to 303 DAT), the psyllid lerp counts entry is on record as “significantly reduced”. For the same molecule, the entries for the “Mean increase in tree height” value in test [2] (0.5 gai/tree), in test [2] (1 gai/tree) and in test [2] (1.5 gai/tree) were 198 ab cm, 228 a cm and 229 a cm, respectively. For the same molecule, the “DBM (diameter at breast height, 1.3 m above ground level)” value in test [2] (0.5 gai/tree, 303 DAT) is 5.44 cm; in test [2] (1 gai/tree, 303 DAT), 5.91 cm; in test [2] (1.5 gai/tree, 303 DAT), 6.67 cm. The Mean tree height in test [2] (0.5 gai/tree, 303 DAT) was 500 bc cm; in test [2] (1 gai/tree, 303 DAT), 526 b cm; in test [2] (1 gai/tree, over 303 days), 5.26 m; in test [2] (1.5 gai/tree, 303 DAT), 594 a cm. Besides, the “Increase in wood volume” value in test [2] (1 gai/tree, 303 DAT, versus untreated) is listed as 8.5 m^3/ha. The Mean tree diameter in test [2] (1 gai/tree, over 303 days) worked out at 5.91 cm. For the same molecule, the Mean wood vol/ha in test [2] (1 gai/tree, over 303 days) is given as 22.2 m^3. Also, the “growth of E. dunni” value in test [2] (sub-surface application at 0.5 to 1.5 gai/tree, high psyllid pressure, up to 303 DAT) is reported as “improved”.

The values are drawn from patent publication US9936622B2, “Apparatus for applying a pesticide to perennial crops” (Sumitomo Chemical Company, Limited, priority 2007, dated 2018).
